These results are taken from patent publication US8481005B2, “Methods to prevent cytotoxicity using N-acetyl-cysteine” (priority 2006, dated 2013).

What all share (format): cell-based
Assay [1] concerns active caspase 3. Kind of assay: Active caspase 3 staining in PBMCs treated with HEMA or CDDP. The conditions noted are these: HEMA 0.0164M, CDDP.
Assay [2] relates to PBMCs. Kind of assay: PBMCs treated with HEMA or CDDP, FITC-Annexin V and PI. The settings on record: about 18 hours, highest concentration of CDDP, HEMA 0.0164M-0.00164M. From the text: The cells were then stained with FITC-Annexin V and PI according to the manufacturer's protocol.
For assay [3], the system named is dental pulp stromal cells. The assay is described as follows: Cell death of rat dental pulp stromal cells with ascorbic acid. The settings on record: overnight incubation; FITC Annexin V and PI. As for the experimental part:
Rat dental pulp stromal cells were next treated with HEMA in the presence and absence of another antioxidant, ascorbic acid. After an overnight incubation following procedures similar to those described above, levels of cell death were determined using FITC Annexin V and PI. […] Role of Cell Differentiation Studies

Assay [4] deals with Caspase 3. The assay is described as follows: Full length caspase 3 in keratinocytes. The conditions noted are these: about 8 hours, NAC 20 mM. The text has this: Roles of NFkB and GAPDH in HEMA-Mediated Cell Death
Assay [5] has as its system human dental pulp stromal cells. Kind of assay: Apoptosis of human dental pulp stromal cells, NAC versus vitamin E, 4 hours. The settings on record: HEMA (0.0082M), vitamin E (5 mM). As for the experimental part: (§1) Following the 4 hour incubation, cells were analyzed for apoptosis using FTIC-Annexin V and PI.
The test system is the same in assay [6]. Kind of assay: VEGF by ELISA, human dental pulp stromal cells, NAC versus vitamin E (Table 5). The settings on record: 4 hours. The protocol: as §1
Dental pulp stromal cells were then treated as described in the preceding paragraph with supernatants removed and assayed for VEGF levels by ELISA following the 4 hour incubation.

For `N.N.[Cl][Pt][Cl]` [CDDP, Cis-diaminedichloroplatinum (II)], in assay [1], the “active caspase 3 staining” value came to 22%. Besides, in assay [2], the “cells remained both PI and Annexin V negative” value stood at 80%.
For `O=C1O[C@H]([C@@H](O)CO)C(O)=C1O` [ascorbic acid], in assay [3], the “reversal of apoptosis induced by HEMA” value is “did not reverse apoptosis induced by HEMA”.
Take `CC[C@@]1(O)C(=O)OCc2c1cc1n(c2=O)Cc2cc3ccccc3nc2-1` [camptothecin]: the “levels of full length caspase 3 (processing of caspase 3)” value in assay [4] is recorded as “moderate effect in processing of caspase 3”.
Vitamin E [Vit E]: in assay [5], the “inhibition of HEMA mediated cell death” value was “failed to inhibit HEMA mediated cell death”. In addition, in assay [6] (no HEMA, NAC (20 mM) and/or vitamin E (5 mM)), the “VEGF levels by ELISA, Human dental pulp stromal cells” value is on record as 1966.2. Also, in assay [6] (vitamin E (5 mM)), the “prevention of HEMA mediated decrease in VEGF secretion” value is given as “failed to prevent the HEMA mediated decrease in VEGF secretion”.
